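1) Cells in 96-well plates. 2) Compound, 48 h, 5 concentrations. 3) Linear interpolation between surrounding doses. 4) Unreached endpoint = highest concentration. At the GI50, growth is halved.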 The source made the active and inactive calls. Cut-off read from the data, not from the text of the source: active = GI50 up to about 1.1 µM and inactive = higher.
Key:
Assay in all cases: NCI-60 cell line screen, 48 h
DLD-1 = tested on: DLD-1
HOP-92 = tested on: HOP-92
ACHN = tested on: ACHN
HCT-116 = tested on: HCT-116
SNB-78 = tested on: SNB-78
IGROV-1 = tested on: IGROV-1
XF498 = tested on: XF498
TK-10 = tested on: TK-10
SK-OV-3 = tested on: SK-OV-3
DMS-273 = tested on: DMS-273
SNB-75 = tested on: SNB-75
M14 = tested on: M14
SR = tested on: SR
MDA-MB-435 = tested on: MDA-MB-435
DU-145 = tested on: DU-145
MCF7 = tested on: MCF7
SF-268 = tested on: SF-268
SF-539 = tested on: SF-539
A498 = tested on: A498
NCI-H226 = tested on: NCI-H226

With COc1ccc(C2C(C(=O)O)=C(CO)Oc3cc4c(cc32)OCO4)cc1 (centres undefined) the GI50 (DLD-1) was > 100 µM (inactive), the GI50 (HOP-92) was > 100 µM (inactive) and the GI50 (ACHN) was > 100 µM (inactive). The GI50 (HCT-116) was > 100 µM (inactive), the GI50 (SNB-78) was > 100 µM (inactive) and the GI50 (IGROV-1) was > 100 µM (inactive). For the same compound, the GI50 (XF498) was > 100 µM (inactive), the GI50 (TK-10) was > 100 µM (inactive) and the GI50 (SK-OV-3) was > 100 µM (inactive). For the same compound, the GI50 (DMS-273) was > 100 µM (inactive), the GI50 (SNB-75) was 27.4 µM (inactive) and the GI50 (M14) was > 100 µM (inactive).
O=c1[nH]nc(NCc2ccccc2)c2nnn(Cc3ccccc3)c12 was tested, and the GI50 (SR) was > 100 µM (inactive), the GI50 (HOP-92) was > 100 µM (inactive) and the GI50 (MDA-MB-435) was > 100 µM (inactive). For the same compound, the GI50 (ACHN) was > 100 µM (inactive), the GI50 (HCT-116) was > 100 µM (inactive) and the GI50 (TK-10) was > 100 µM (inactive). The GI50 (DU-145) was > 100 µM (inactive), the GI50 (MCF7) was > 100 µM (inactive) and the GI50 (M14) was > 100 µM (inactive).
In the case of NC(CCOCCP(=O)(O)O)C(=O)O (centres undefined), the GI50 (SR) is reported as > 100 µM (inactive), the GI50 (SF-268) is reported as > 100 µM (inactive) and the GI50 (HOP-92) is reported as > 100 µM (inactive). For the same compound, the GI50 (MDA-MB-435) was > 100 µM (inactive), the GI50 (ACHN) was > 100 µM (inactive) and the GI50 (HCT-116) was > 100 µM (inactive). The GI50 (IGROV-1) was > 100 µM (inactive), the GI50 (SF-539) was > 100 µM (inactive) and the GI50 (TK-10) was > 100 µM (inactive). The GI50 (DU-145) was > 100 µM (inactive), the GI50 (MCF7) was > 100 µM (inactive) and the GI50 (SK-OV-3) was > 100 µM (inactive). For the same compound, the GI50 (SNB-75) was > 100 µM (inactive) and the GI50 (M14) was > 100 µM (inactive).
Cc1n[nH]c(N)c1C(N)=O was tested, and the GI50 (DLD-1) was > 100 µM (inactive), the GI50 (SF-268) was > 100 µM (inactive) and the GI50 (A498) was > 100 µM (inactive). For the same compound, the GI50 (ACHN) was > 100 µM (inactive), the GI50 (SNB-78) was > 100 µM (inactive) and the GI50 (IGROV-1) was > 100 µM (inactive). The GI50 (SF-539) was > 100 µM (inactive), the GI50 (XF498) was > 100 µM (inactive) and the GI50 (TK-10) was > 100 µM (inactive). The GI50 (SK-OV-3) was > 100 µM (inactive), the GI50 (DMS-273) was > 100 µM (inactive) and the GI50 (SNB-75) was > 100 µM (inactive). For the same compound, the GI50 (M14) was > 100 µM (inactive).
For O=C1NC(=O)C2(CCc3ccc(N(CCCl)CCCl)cc32)N1 (centres undefined), the GI50 (DLD-1) was 19 µM (inactive), the GI50 (SF-268) was 7.36 µM (inactive) and the GI50 (HOP-92) was 13.5 µM (inactive). The GI50 (A498) was 16.9 µM (inactive), the GI50 (NCI-H226) was 2.08 µM (inactive) and the GI50 (HCT-116) was 14.1 µM (inactive). For the same compound, the GI50 (SNB-78) was 22 µM (inactive), the GI50 (IGROV-1) was 15.9 µM (inactive) and the GI50 (SF-539) was 5.27 µM (inactive). The GI50 (MCF7) was 10.1 µM (inactive), the GI50 (SK-OV-3) was 16.1 µM (inactive) and the GI50 (DMS-273) was 2.94 µM (inactive). The GI50 (SNB-75) was 7.48 µM (inactive).
In the case of CC1C(O)[C@@]2(OC[C@@]34C(=O)CC5(O)[C@H](CCC6Cc7nc8c(nc7C[C@]65C)CC5CC[C@@H]6C7=C[C@H]9O[C@@]%10(O[C@@](C)(CO)C[C@@H]%10O)C(C)[C@@]9(O)[C@]7(C)[C@@H](O)CC6[C@]5(C)C8)C3=CC[C@H]4C2C)OC1(C)C (some centres undefined), the GI50 (DLD-1) is reported as 0.0607 µM (active), the GI50 (SF-268) is reported as 0.000659 µM (active) and the GI50 (HOP-92) is reported as < 0.000355 µM (active). The GI50 (A498) was < 0.000355 µM (active), the GI50 (NCI-H226) was > 3.55 µM (inactive) and the GI50 (HCT-116) was 0.000776 µM (active). The GI50 (SNB-78) was 0.00146 µM (active), the GI50 (IGROV-1) was 0.00262 µM (active) and the GI50 (SF-539) was < 0.000355 µM (active). For the same compound, the GI50 (MCF7) was < 0.000355 µM (active), the GI50 (SK-OV-3) was 0.00226 µM (active) and the GI50 (DMS-273) was < 0.000355 µM (active). For the same compound, the GI50 (SNB-75) was < 0.000355 µM (active).

— ChEMBL document CHEMBL1201862, “PubChem BioAssay data set” (2004)
